Laboratory results published in ChEMBL document CHEMBL1201862, “PubChem BioAssay data set” (2004).
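These data come from cells grown in 96-well plates and exposed to compound for 48 hours at five concentrations. At the GI50, growth is halved.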 The source made the active and inactive calls. Cut-off read from the data, not from the text of the source: active = GI50 up to about 1.1 µM and inactive = higher.

How the values were obtained:
Assay in all cases: NCI anticancer screen, dose series, 48 h
A498 = system: A498
LOX IMVI = system: LOX IMVI
Hs-578T = system: Hs-578T
U-251 = system: U-251
IGROV-1 = system: IGROV-1
OVCAR-3 = system: OVCAR-3
SW-620 = system: SW-620
A549 = system: A549
SF-539 = system: SF-539
NCI-H522 = system: NCI-H522
ACHN = system: ACHN
COLO 205 = system: COLO 205
MDA-MB-231 = system: MDA-MB-231
HOP-62 = system: HOP-62
HCT-15 = system: HCT-15
UO-31 = system: UO-31
RPMI-8226 = system: RPMI-8226
OVCAR-5 = system: OVCAR-5
MDA-N = system: MDA-N
BT-549 = system: BT-549

Measured: GI50

c1csc(-c2csc(-c3cccs3)c2)c1
inactive: A498 > 100 µM | LOX IMVI 57.7 µM | Hs-578T 51.3 µM | U-251 77.4 µM | IGROV-1 78.5 µM | OVCAR-3 29.4 µM | SW-620 35.9 µM | A549 30.8 µM | SF-539 > 100 µM | NCI-H522 29.4 µM | ACHN > 100 µM | COLO 205 18 µM | MDA-MB-231 > 100 µM | HOP-62 63.1 µM | UO-31 57.8 µM | RPMI-8226 24.3 µM | OVCAR-5 > 100 µM
27.7 µM: HCT-15

O=C1C(c2ccccc2)=[N+]([O-])c2ccccc21
inactive: A498 17.9 µM | LOX IMVI 3.35 µM | Hs-578T 29.8 µM | U-251 10.5 µM | OVCAR-3 13.6 µM | SW-620 5.83 µM | A549 19.9 µM | SF-539 18.8 µM | ACHN 19.2 µM | COLO 205 16.2 µM | MDA-MB-231 11.7 µM | HOP-62 18.7 µM | UO-31 16.2 µM | MDA-N 3.29 µM | RPMI-8226 14.9 µM | OVCAR-5 22.4 µM
19.7 µM: HCT-15

O=C(NCP(=O)(Oc1ccccc1)Oc1ccccc1)OCc1ccccc1
inactive: LOX IMVI > 100 µM | BT-549 > 100 µM | Hs-578T 40.7 µM | U-251 > 100 µM | IGROV-1 > 100 µM | OVCAR-3 55.1 µM | SW-620 > 100 µM | A549 70.8 µM | NCI-H522 83.6 µM | ACHN 80.5 µM | COLO 205 > 100 µM | HOP-62 39.8 µM | UO-31 > 100 µM | RPMI-8226 > 100 µM | OVCAR-5 > 100 µM
> 100 µM: HCT-15

CCOC(=O)N(c1ccccc1)c1cc(=O)n2ccccc2n1
> 100 µM: HCT-15
inactive: A498 > 100 µM | LOX IMVI > 100 µM | BT-549 > 100 µM | U-251 > 100 µM | IGROV-1 > 100 µM | OVCAR-3 > 100 µM | SW-620 > 100 µM | A549 > 100 µM | SF-539 > 100 µM | ACHN > 100 µM | COLO 205 > 100 µM | MDA-MB-231 > 100 µM | HOP-62 > 100 µM | UO-31 > 100 µM | RPMI-8226 > 100 µM | OVCAR-5 > 100 µM

C1CSCCSCCCSC2CCCCC2SC1 (stereo not given)
> 100 µM: HCT-15
inactive: LOX IMVI > 100 µM | BT-549 > 100 µM | U-251 > 100 µM | IGROV-1 > 100 µM | OVCAR-3 > 100 µM | SW-620 > 100 µM | A549 > 100 µM | SF-539 > 100 µM | NCI-H522 > 100 µM | COLO 205 86.3 µM | MDA-MB-231 60 µM | HOP-62 > 100 µM | UO-31 > 100 µM | MDA-N > 100 µM | RPMI-8226 45.4 µM | OVCAR-5 > 100 µM

OCCN(CCO)c1ccc2c(C(F)(F)F)cc(C(F)(F)F)nc2n1
inactive: A498 48.5 µM | LOX IMVI > 100 µM | Hs-578T > 100 µM | U-251 > 100 µM | IGROV-1 > 100 µM | OVCAR-3 > 100 µM | SW-620 > 100 µM | A549 > 77.3 µM | SF-539 > 100 µM | NCI-H522 > 100 µM | ACHN > 100 µM | COLO 205 > 100 µM | MDA-MB-231 > 100 µM | HOP-62 > 100 µM | UO-31 > 100 µM | MDA-N > 100 µM | RPMI-8226 > 100 µM | OVCAR-5 > 100 µM
> 86.5 µM: HCT-15

CC1=NN(c2nc(N)nc(/C(C#N)=C\c3csc([N+](=O)[O-])c3)n2)C(C)(C)C1
81.3 µM: HCT-15
inactive: A498 > 100 µM | LOX IMVI 71.3 µM | Hs-578T 22.5 µM | U-251 19.3 µM | IGROV-1 49.3 µM | OVCAR-3 26.4 µM | SW-620 68.7 µM | SF-539 27.2 µM | NCI-H522 21.3 µM | ACHN 35 µM | MDA-MB-231 26.9 µM | HOP-62 26.6 µM | UO-31 37.4 µM | MDA-N 27.7 µM | RPMI-8226 35.6 µM | OVCAR-5 34.7 µM

COc1ccc(/C=C2\CN(C)C/C(=C\c3ccc(OC)cc3)C2=O)cc1
inactive: A498 > 100 µM | LOX IMVI > 100 µM | Hs-578T > 100 µM | U-251 > 100 µM | IGROV-1 52.2 µM | OVCAR-3 > 100 µM | SW-620 > 100 µM | A549 > 100 µM | SF-539 > 100 µM | NCI-H522 > 100 µM | ACHN > 100 µM | COLO 205 > 100 µM | MDA-MB-231 > 100 µM | HOP-62 > 100 µM | UO-31 > 100 µM | MDA-N > 100 µM | RPMI-8226 > 100 µM | OVCAR-5 > 100 µM
> 100 µM: HCT-15

COc1cc(C(=O)O[C@H]2CCC3CCC2N3C)cc(OC)c1OC (stereo not given in full)
inactive: A498 36.3 µM | LOX IMVI > 100 µM | Hs-578T > 100 µM | U-251 > 100 µM | SW-620 > 100 µM | A549 > 100 µM | SF-539 > 100 µM | ACHN > 100 µM | COLO 205 > 100 µM | MDA-MB-231 > 100 µM | HOP-62 > 100 µM | UO-31 43.2 µM | RPMI-8226 > 100 µM | OVCAR-5 > 100 µM
> 100 µM: HCT-15

O=c1[nH]c(=O)n(C2CC(O)C(COP(=O)(O)OC3CC(n4cc(F)c(=O)[nH]c4=O)OC3COP(=O)(O)OC3CC(n4cc(F)c(=O)[nH]c4=O)OC3COP(=O)(O)OC3CC(n4cc(F)c(=O)[nH]c4=O)OC3COP(=O)(O)OC3CC(n4cc(F)c(=O)[nH]c4=O)OC3COP(=O)(O)OC3CC(n4cc(F)c(=O)[nH]c4=O)OC3COP(=O)(O)OC3CC(n4cc(F)c(=O)[nH]c4=O)OC3COP(=O)(O)OC3CC(n4cc(F)c(=O)[nH]c4=O)OC3COP(=O)(O)OC3CC(n4cc(F)c(=O)[nH]c4=O)OC3COP(=O)(O)OC3CC(n4cc(F)c(=O)[nH]c4=O)OC3CO)O2)cc1F (stereo not given)
inactive: SW-620 > 50 µM | MDA-MB-231 9.33 µM
active: A498 < 0.005 µM | LOX IMVI < 0.005 µM | U-251 0.115 µM | IGROV-1 0.0435 µM | A549 < 0.005 µM | SF-539 < 0.005 µM | NCI-H522 0.015 µM | ACHN < 0.005 µM | COLO 205 0.129 µM | HOP-62 < 0.005 µM | UO-31 < 0.005 µM | MDA-N 0.0685 µM | RPMI-8226 0.232 µM
0.309 µM: HCT-15

Cn1c(=O)oc2cc(C(O)CN3CCN(Cc4ccccn4)CC3)c(Cl)cc21 (stereo not given)
inactive: A498 > 100 µM | LOX IMVI > 100 µM | BT-549 > 100 µM | U-251 > 100 µM | IGROV-1 > 100 µM | OVCAR-3 > 100 µM | SW-620 > 100 µM | A549 > 100 µM | SF-539 > 100 µM | NCI-H522 > 100 µM | ACHN > 100 µM | COLO 205 > 100 µM | MDA-MB-231 > 100 µM | HOP-62 > 100 µM | UO-31 > 100 µM | MDA-N > 100 µM | OVCAR-5 > 100 µM
> 100 µM: HCT-15

COC(=O)C1=C(O)C(C(=O)OC)[C@]2(O)[C@H](C(=O)OC)[C@H]1C[C@@H](c1ccc([N+](=O)[O-])cc1)[C@H]2C(=O)OC (stereo not given in full)
12.7 µM: HCT-15
inactive: LOX IMVI 13 µM | BT-549 15.9 µM | U-251 11.5 µM | IGROV-1 12.8 µM | OVCAR-3 25.1 µM | SW-620 16.6 µM | A549 21.3 µM | SF-539 30.5 µM | NCI-H522 2.46 µM | ACHN 18.1 µM | COLO 205 25 µM | MDA-MB-231 24.6 µM | HOP-62 34.6 µM | MDA-N 7.91 µM | OVCAR-5 25.2 µM

COc1cc2[nH]c(=O)c3cc(C)cc4c(Cl)nc(c1OC)c2c43
inactive: LOX IMVI 53.2 µM | BT-549 35 µM | U-251 38.6 µM | IGROV-1 67.8 µM | OVCAR-3 > 100 µM | SW-620 > 100 µM | A549 45.7 µM | SF-539 29.9 µM | NCI-H522 36.3 µM | ACHN 40.6 µM | COLO 205 72.6 µM | MDA-MB-231 76.6 µM | HOP-62 23.6 µM | UO-31 > 100 µM | MDA-N > 100 µM | RPMI-8226 34.9 µM | OVCAR-5 > 100 µM
> 100 µM: HCT-15

CCCCCCCCCc1cc(=O)c2c(O)cc(O)cc2o1
inactive: A498 18.1 µM | LOX IMVI 21.8 µM | Hs-578T 16.7 µM | U-251 28.6 µM | IGROV-1 16.5 µM | OVCAR-3 15.7 µM | SW-620 27.9 µM | A549 18.5 µM | SF-539 17.3 µM | NCI-H522 15.1 µM | ACHN 19 µM | COLO 205 27.2 µM | MDA-MB-231 > 100 µM | HOP-62 14.8 µM | UO-31 16.9 µM | MDA-N > 100 µM | RPMI-8226 5.86 µM | OVCAR-5 16.6 µM
18.8 µM: HCT-15

COc1cc(C(=O)Oc2c(C(C)=O)sc3c2c(=O)n(-c2ccccc2)c(=S)n3-c2ccccc2)cc(OC)c1OC
inactive: A498 5.78 µM | LOX IMVI 18.7 µM | Hs-578T 19.4 µM | U-251 20.7 µM | IGROV-1 21 µM | OVCAR-3 18.2 µM | SW-620 25.2 µM | A549 28.9 µM | SF-539 11.6 µM | ACHN 16.6 µM | COLO 205 15.7 µM | MDA-MB-231 25.9 µM | HOP-62 24.4 µM | MDA-N 22.8 µM | RPMI-8226 27 µM | OVCAR-5 17.5 µM
22.2 µM: HCT-15
active: NCI-H522 1.01 µM
